The test concerns the target T1, Human prostaglandin E2 receptor 4 (EP4) (Homo sapiens, UniProt P35408).
T1 construct: expressed in transfected cells; host or cells: HEK293 cells transduced with EP4 BacMam virus
Nature of the test: cAMP Gs Functional Assay (HTRF cAMP dynamic-2), antagonism of PGE2. The class given is cell-based. The conditions noted are these: HEK293 cells transfected with EP4 BacMam virus; PGE2 challenge at EC80 (7 nM); pIC50 converted to functional pKb with a modified Cheng Prussoff equation; read-out: Human EP4 fpKb (converted). How it is done: Cloning, Baculovirus generation, large scale infection of HEK293 cells and membrane preparation: Human prostaglandin E2 receptor 4 (EP4) was cloned into pBacMam expression vector (GeneScript, UK). Transposition of EP4 DNA was performed using Invitrogen's Bac-to-Bac Baculovirus Expression Systems. P0 baculovirus was generated by transfecting SF9 Cells with bacmid DNA using Cellfectin II transfection reagent (ThermoFisher Scientific, UK, catalog number 10362-100). Following P0 generation P1 virus was then generated ready for large scale infection and membrane preparation. HEK293 cells were grown in DMEM+Glutamax, supplemented with 10% heat inactivated fetal bovine serum (FBS). Cells were infected at a seeding density of 3.5 million cells/mL in 500 cm^3 flasks at 5% v/v EP4 Bacman. Expression was carried out over 36 hr period at 37° C. with 5% CO2. The cells were removed using PBS and a cell scrapper. The cell culture was centrifuged at 2500 RPM for 10 mins at 4° C. The supernatant was then poured off and the pellet stored at −80° C. The pellet was defrosted and re-suspended in 15 mL of homogenising buffer (20 mM HEPES, 10 mM EDTA, pH 7.4). Then homogenised in mechanical homogeniser (VMR) for 10 seconds. The membrane was centrifuged in centrifuge tubes at 40,000 g for 15 mins at 4° C. The supernatant was poured away and re-suspended in 15 mL of homogenising buffer. Homogenised for 20 seconds. The membrane was centrifuged at 40,000 g for 45 mins at 4° C. The membrane was re-suspended in 3 mL of storage buffer (20 mM HEPES, 0.1 mM EDTA, pH 7.4) mixing well. The resulting membranes were then stored at −80° C.
cAMP Gs Functional Assay: cAMP production following EP4 receptor activation was determined using the Homogeneous Time-Resolved Fluorescence (HTRF) cAMP dynamic-2 assay (Cisbio, France). HEK293 cells were transfected using a 0.5% EP4 Bacman virus for 36 hours, before dissociating the cells, and freezing at […].
On the day of testing, increasing concentration of test compounds, alongside positive controls (1 uM ONO-AE3-208) and negative control (DMSO (Sigma-Aldrich, UK) were added to a ProxiPlate-384 Plus, White 384-shallow well Mircoplate, (PerkinElmer, USA) using the ECHO dispense.
Cells were defrosted in a water bath and resuspended in DMEM supplemented with 10% FBS before centrifuging at 1200 RPM for 5 mins to form a pellet. The pellet was resuspended in assay buffer (DMEM+0.5 mM IBMX (Tocris, Abingdon, UK, Catalog Number 2845)) to a 1×10^6 cells/mL. Cell suspension, for a final assay concentration of 5000 cell/well was added using the multidrop to the pre-dispensed assay plate. The plate was then incubated at 37° C. for 30 mins, with 5% CO2. After incubation, EC80 concentration (7 nM) of PGE2 (EP4 agonist) was added to the plate. In parallel, a PGE2 dose-response curve was dispense to a separate plate. Assay buffer was then dispensed on top. The cAMP production was determined as manufacturer's instructions, before plates were read on a PheraStar fluorescence plate reader (BMG LabTech, Germany).
The pIC50 was converted to a functional pKb value using a modified Cheng Prussoff equation where Kd=agonist EC50 and Lhot=agonist challenge concentration;
T1 sequence (P35408 whole entry): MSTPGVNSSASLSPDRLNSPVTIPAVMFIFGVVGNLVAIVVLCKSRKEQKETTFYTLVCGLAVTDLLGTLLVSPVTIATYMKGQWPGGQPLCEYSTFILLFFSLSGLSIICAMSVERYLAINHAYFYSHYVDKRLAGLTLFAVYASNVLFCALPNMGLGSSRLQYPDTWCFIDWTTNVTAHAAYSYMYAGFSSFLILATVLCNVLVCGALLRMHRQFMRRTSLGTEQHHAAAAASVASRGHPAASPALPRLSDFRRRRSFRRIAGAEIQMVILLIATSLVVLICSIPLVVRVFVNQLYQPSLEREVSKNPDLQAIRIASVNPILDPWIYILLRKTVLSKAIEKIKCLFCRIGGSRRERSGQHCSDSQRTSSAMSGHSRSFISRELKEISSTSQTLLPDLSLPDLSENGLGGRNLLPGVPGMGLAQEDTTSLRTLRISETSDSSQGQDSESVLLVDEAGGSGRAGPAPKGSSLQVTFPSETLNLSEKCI
In the case of `CC(C)[C@@H](OCc1ccc(C(F)(F)F)cn1)C(=O)NC1(c2ccc(C(=O)O)cc2)CC1` [Example 75, (R)-4-(1-(3-methyl-2-((5-(trifluoromethyl)pyridin-2-yl)methoxy)butanamido)cyclopropyl)benzoic acid], the Ki is 69.2 nM. For the compound `CC(C)[C@@H](OCc1ccc(C(F)(F)F)cc1)C(=O)N[C@@H](C)c1ccc(C(=O)O)cc1` [Example 1, 4-((S)-1-((R)-3-methyl-2-((4-(trifluoromethyl)benzyl)oxy)butanamido)ethyl)benzoic acid], the Ki is 0.776 nM. With `CC(O[C@@H](C(=O)N[C@@H](C)c1ccc(C(=O)O)cc1)C(C)C)c1ccc(F)cc1` (mixture of isomers) [Example 46, 4-((1 S)-1-((2R)-2-(1-(4-fluorophenyl)ethoxy)-3-methylbutanamido)ethyl)benzoic acid], the Ki is 7.24 nM. As to `CC(C)[C@@H](OCc1ccc(F)cc1)C(=O)N[C@@H](C)c1ccc(C(=O)NS(=O)(=O)C2CC2)cc1` [Example 81, N-(cyclopropylsulfonyl)-4-((S)-1-((R)-2-((4-fluorobenzyl)oxy)-3-methylbutanamido)ethyl)benzamide], the Ki was 302 nM. As for `CC(C)[C@@H](OCc1cccc(O)c1)C(=O)N[C@@H](C)c1ccc(C(=O)O)cc1` [Example 38, 4-((S)-1-((R)-2-((3-hydroxybenzyl)oxy)-3-methylbutanamido)ethyl)benzoic acid], the Ki was more than 4680 nM.

As for `CC(C)[C@@H](OCc1ccc(C(F)F)cc1)C(=O)NC1(c2ccc(C(=O)O)cc2)CC1` [Example 62, (R)-4-(1-(2-((4-(difluoromethyl)benzyl)oxy)-3-methylbutanamido)cyclopropyl)benzoic acid], the Ki was 0.398 nM. The result for `CC(C)[C@@H](OCc1cccc(C2CC2)c1)C(=O)NC1(c2ccc(-c3nnn[nH]3)cc2)CC1` [Example 80, (R)-2-((3-cyclopropylbenzyl)oxy)-N-(1-(4-(2,3-dihydro-1H-tetrazol-5-yl)phenyl)cyclopropyl)-3-methylbutanamide] reads 0.195 nM; that for `CC(C)[C@@H](OCc1ccc(S(F)(F)(F)(F)F)cc1)C(=O)N[C@@H](C)c1ccc(C(=O)O)cc1` [Example 26, 4-((S)-1-((R)-3-methyl-2-((4-(pentafluoro-λ^6-sulfaneyl)benzyl)oxy)butanamido)ethyl)benzoic acid], 27.5 nM.

Regarding `CC(C)[C@@H](OCc1ccc(F)cc1)C(=O)N[C@@H](C)c1ccc(-c2nnn[nH]2)cc1` [Example 42, (R)—N—((S)-1-(4-(1H-tetrazol-5-yl)phenyl)ethyl)-2-((4-fluorobenzyl)oxy)-3-methylbutanamide], the Ki is 1.74 nM.

For the compound `CC(C)C(OCc1cccc(F)c1)C(=O)N[C@@H](C)c1ccc(C(=O)O)cc1` (single isomer, unassigned) [Example 18], the Ki is 457 nM. Take `CC(C)[C@@H](OCc1ccc(C(F)(F)F)cc1)C(=O)NC1(c2ccc(C(=O)O)cc2)CCC1` [Example 73, (R)-4-(1-(3-methyl-2-((4-(trifluoromethyl)benzyl)oxy)butanamido)cyclobutyl)benzoic acid]: the Ki was 182 nM. As to `CC(C)[C@@H](OCc1ccc(C(F)F)c(F)c1)C(=O)N[C@@H](C)c1ccc(C(=O)O)cc1` [Example 29, 4-((S)-1-((R)-2-((4-(difluoromethyl)-3-fluorobenzyl)oxy)-3-methylbutanamido)ethyl)benzoic acid], the Ki is 0.603 nM.

For `CC(C)[C@@H](OCc1cccc(C#N)c1)C(=O)NC1(c2ccc(C(=O)O)cc2)CC1` [Example 54, (R)-4-(1-(2-((3-cyanobenzyl)oxy)-3-methylbutanamido)cyclopropyl)benzoic acid], the Ki is more than 12900 nM. As for `CC(C)[C@@H](OCc1ccc(C(F)(F)F)cc1)C(=O)NC1(c2ccc(C(=O)NS(C)(=O)=O)cc2)CC1` [Example 63, (R)-4-(1-(3-methyl-2-((4-(trifluoromethyl)benzyl)oxy)butanamido)cyclopropyl)-N-(methylsulfonyl)benzamide], the Ki was 25.7 nM.

Consider `Cc1cc([C@H](C)NC(=O)[C@H](OCc2ccc(C(F)(F)F)cc2)C(C)C)ccc1C(=O)O` [Example 36, 2-methyl-4-((S)-1-((R)-3-methyl-2-((4-(trifluoromethyl)benzyl)oxy)butanamido)ethyl)benzoic acid], for which the Ki is 25.7 nM. Regarding `CC(C)[C@@H](OCc1ccc(F)cc1)C(=O)NC1(c2ccc(C(=O)O)cc2)CC1` [Example 31, (R)-4-(1-(2-((4-fluorobenzyl)oxy)-3-methylbutanamido)cyclopropyl)benzoic acid], the Ki is 2.24 nM. `CC(C)[C@@H](OCc1ccc(C(F)(F)F)cn1)C(=O)N[C@@H](C)c1ccc(C(=O)O)cc1` [Example 25, 4-((S)-1-((R)-3-methyl-2-((5-(trifluoromethyl)pyridin-2-yl)methoxy)butanamido)ethyl)benzoic acid]: the Ki was 13.8 nM.

Consider `CC(C)[C@@H](OCc1ccc(C(F)(F)F)nc1)C(=O)NC1(c2ccc(C(=O)O)cc2)CC1` [Example 76, (R)-4-(1-(3-methyl-2-((6-(trifluoromethyl)pyridin-3-yl)methoxy)butanamido)cyclopropyl)benzoic acid], for which the Ki is 33.1 nM.

`CC(C)[C@@H](OCc1ccc(C2CC2)cc1)C(=O)N[C@@H](C)c1ccc(C(=O)O)cc1` [Example 30, 4-((S)-1-((R)-2-((4-cyclopropylbenzyl)oxy)-3-methylbutanamido)ethyl)benzoic acid]: the Ki is 5.37 nM. The result for `CC(C)[C@@H](OCc1ccc(F)c(F)c1)C(=O)N[C@@H](C)c1ccc(C(=O)O)cc1` [Example 27, 4-((S)-1-((R)-2-((3,4-difluorobenzyl)oxy)-3-methylbutanamido)ethyl)benzoic acid] reads 1.91 nM; that for `O=C(O)c1ccc(C2(NC(=O)C(OCc3ccc(C(F)(F)F)cc3)C3CCC3)CC2)cc1` (stereo not drawn) [Example 96, 4-(1-(2-cyclobutyl-2-((4-(trifluoromethyl)benzyl)oxy)acetamido)cyclopropyl)benzoic acid], 6.61 nM. With `CC(C)[C@@H](OCc1cccc(CO)c1)C(=O)N[C@@H](C)c1ccc(C(=O)O)cc1` [Example 45, 4-((S)-1-((R)-2-((3-(hydroxymethyl)benzyl)oxy)-3-methylbutanamido)ethyl)benzoic acid], the Ki was 10 nM.

Turning to `CC(C)[C@@H](OCc1cccc(S(C)(=O)=O)c1)C(=O)N[C@@H](C)c1ccc(C(=O)O)cc1` [Example 8, 4-((S)-1-((R)-3-methyl-2-((3-(methylsulfonyl)benzyl)oxy)butanamido)ethyl)benzoic acid], the Ki was 8.71 nM. For `CC(C)[C@@H](OCc1cccc(OC(F)F)c1)C(=O)N[C@@H](C)c1ccc(-c2nnn[nH]2)cc1` [Example 82, (R)—N—((S)-1-(4-(1H-tetrazol-5-yl)phenyl)ethyl)-2-((3-(difluoromethoxy)benzyl)oxy)-3-methylbutanamide], the Ki was 0.0871 nM. The result for `CC(C)[C@@H](OCc1ccc(Cl)cc1)C(=O)N[C@@H](C)c1ccc(C(=O)O)cc1` [Example 11, 4-((S)-1-((R)-2-((4-chlorobenzyl)oxy)-3-methylbutanamido)ethyl)benzoic acid] reads 3.16 nM; that for `COc1cccc(COC(C(=O)N[C@@H](C)c2ccc(C(=O)O)cc2)C(C)C)c1` (mixture of isomers) [Example 3, 4-((1S)-1-(2-((3-methoxybenzyl)oxy)-3-methylbutanamido)ethyl)benzoic acid], more than 67.6 nM. For `CC(C)[C@@H](OCc1ccc(F)c(OC(F)F)c1)C(=O)NC1(c2ccc(C(=O)O)cc2)CC1` [Example 57, (R)-4-(1-(2-((3-(difluoromethoxy)-4-fluorobenzyl)oxy)-3-methylbutanamido)cyclopropyl)benzoic acid], the Ki was 0.372 nM.

These data come from patent US12391641B2, “Prostaglandin EP4 receptor antagonist compounds” (NXERA PHARMA UK LIMITED, priority 2019, dated 2025).
